Laboratory results taken from patent publication US9139566B2, “Fluorine-18 and carbon-11 labeled radioligands for positron emission tomography (PET) imaging for LRRK2” (Genentech, Inc., priority 2011, dated 2015).

Target: LRRK2 (Homo sapiens, UniProt Q5S007)
Assay: LRRK2 affinity (Ki)
Assay type: binding
Settings: LRRK2 affinity (micromolar), Table 1

Chain of LRRK2 (Q5S007 whole entry): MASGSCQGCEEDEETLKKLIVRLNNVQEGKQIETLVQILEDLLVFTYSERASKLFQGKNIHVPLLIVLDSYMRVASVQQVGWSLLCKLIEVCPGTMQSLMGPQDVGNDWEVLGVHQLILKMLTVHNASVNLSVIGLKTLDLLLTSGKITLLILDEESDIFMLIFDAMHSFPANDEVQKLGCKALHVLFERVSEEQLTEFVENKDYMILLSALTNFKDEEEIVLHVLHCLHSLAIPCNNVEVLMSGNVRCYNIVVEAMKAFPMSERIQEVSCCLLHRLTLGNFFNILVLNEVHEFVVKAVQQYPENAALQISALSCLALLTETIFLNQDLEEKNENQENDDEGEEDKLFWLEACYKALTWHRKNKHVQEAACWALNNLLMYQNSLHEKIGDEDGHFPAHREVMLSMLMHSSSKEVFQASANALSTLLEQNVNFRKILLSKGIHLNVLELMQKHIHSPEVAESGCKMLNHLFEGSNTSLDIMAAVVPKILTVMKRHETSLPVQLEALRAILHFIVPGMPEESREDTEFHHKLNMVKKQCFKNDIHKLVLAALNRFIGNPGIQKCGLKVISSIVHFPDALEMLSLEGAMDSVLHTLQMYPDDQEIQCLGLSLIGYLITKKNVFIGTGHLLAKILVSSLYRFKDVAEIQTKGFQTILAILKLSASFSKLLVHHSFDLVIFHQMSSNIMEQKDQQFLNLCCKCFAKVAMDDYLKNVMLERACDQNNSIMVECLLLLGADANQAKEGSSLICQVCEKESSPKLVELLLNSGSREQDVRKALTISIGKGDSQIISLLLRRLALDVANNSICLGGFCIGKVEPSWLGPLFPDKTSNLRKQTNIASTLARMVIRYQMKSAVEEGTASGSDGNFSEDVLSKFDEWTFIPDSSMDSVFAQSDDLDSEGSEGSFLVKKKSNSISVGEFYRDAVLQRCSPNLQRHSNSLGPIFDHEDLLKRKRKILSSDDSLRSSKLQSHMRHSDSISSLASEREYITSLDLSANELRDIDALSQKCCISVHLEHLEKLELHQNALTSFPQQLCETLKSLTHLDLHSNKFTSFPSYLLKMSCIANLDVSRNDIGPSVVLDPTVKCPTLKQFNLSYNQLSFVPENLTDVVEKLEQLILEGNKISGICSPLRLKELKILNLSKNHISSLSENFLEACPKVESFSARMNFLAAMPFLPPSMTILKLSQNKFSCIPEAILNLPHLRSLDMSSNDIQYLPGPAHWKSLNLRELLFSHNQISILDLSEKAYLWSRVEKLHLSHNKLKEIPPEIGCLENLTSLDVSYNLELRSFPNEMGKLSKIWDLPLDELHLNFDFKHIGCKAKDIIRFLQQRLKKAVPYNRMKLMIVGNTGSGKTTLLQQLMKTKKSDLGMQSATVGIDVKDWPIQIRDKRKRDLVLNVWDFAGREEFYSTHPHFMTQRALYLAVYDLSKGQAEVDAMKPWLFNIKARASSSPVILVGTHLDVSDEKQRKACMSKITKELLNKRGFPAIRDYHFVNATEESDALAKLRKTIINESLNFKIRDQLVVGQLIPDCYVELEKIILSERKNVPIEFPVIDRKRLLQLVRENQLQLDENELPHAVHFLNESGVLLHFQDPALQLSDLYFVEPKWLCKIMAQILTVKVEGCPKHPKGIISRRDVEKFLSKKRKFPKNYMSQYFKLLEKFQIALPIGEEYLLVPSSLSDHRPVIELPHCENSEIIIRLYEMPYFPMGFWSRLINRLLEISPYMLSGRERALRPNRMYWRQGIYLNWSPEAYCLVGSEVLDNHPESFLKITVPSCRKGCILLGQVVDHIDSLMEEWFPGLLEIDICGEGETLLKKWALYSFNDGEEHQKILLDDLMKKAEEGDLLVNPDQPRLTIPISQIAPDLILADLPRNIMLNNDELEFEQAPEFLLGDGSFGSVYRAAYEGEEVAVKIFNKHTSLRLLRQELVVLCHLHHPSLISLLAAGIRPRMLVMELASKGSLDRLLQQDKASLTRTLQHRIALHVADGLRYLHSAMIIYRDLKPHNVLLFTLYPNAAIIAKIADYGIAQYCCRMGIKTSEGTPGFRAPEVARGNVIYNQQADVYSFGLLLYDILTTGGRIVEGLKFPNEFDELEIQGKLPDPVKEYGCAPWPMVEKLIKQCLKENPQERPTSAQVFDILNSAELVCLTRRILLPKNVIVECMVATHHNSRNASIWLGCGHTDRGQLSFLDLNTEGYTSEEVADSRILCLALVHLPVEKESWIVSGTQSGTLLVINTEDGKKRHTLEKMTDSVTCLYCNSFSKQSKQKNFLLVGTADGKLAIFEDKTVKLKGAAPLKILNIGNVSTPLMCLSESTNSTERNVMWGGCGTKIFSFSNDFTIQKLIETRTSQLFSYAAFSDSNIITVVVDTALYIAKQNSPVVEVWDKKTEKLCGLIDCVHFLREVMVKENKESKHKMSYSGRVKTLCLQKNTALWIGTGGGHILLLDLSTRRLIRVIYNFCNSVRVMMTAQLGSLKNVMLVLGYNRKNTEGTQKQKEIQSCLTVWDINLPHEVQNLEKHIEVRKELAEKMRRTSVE

Row | Ki [nM] | Compound
1 | 0.6 | O=C(c1cc(OCCF)c(Nc2ncc(C(F)(F)F)c(NC3CC3)n2)cc1F)N1CCOCC1 [Compound 1, (4-(4-(cyclopropylamino)-5-(trifluoromethyl)pyrimidin-2-ylamino)-2-fluoro-5-(2-fluoroethoxy)phenyl)(morpholino) methanone]
2 | 1 | CNc1nc(Nc2cc(C)c(C(=O)N3CCOCC3)cc2OCF)ncc1C(F)(F)F [Compound 2, (5-(fluoromethoxy)-2-methyl-4-(4-(methylamino)-5-(trifluoromethyl)pyrimidin-2-ylamino)phenyl)(morpholino) methanone]
3 | 1.5 | CCNc1nc(Nc2cc(OCF)c(C(=O)N3CCCC3)cc2Cl)ncc1C(F)(F)F [Compound 5, (5-chloro-4-(4-(ethylamino)-5-(trifluoromethyl)pyrimidin-2-ylamino)-2-(fluoromethoxy)phenyl)(pyrrolidin-1-yl)methanone]
4 | 0.4 | CCNc1nc(Nc2cc(OC)c(C(=O)N3CCC(F)(F)C3)cc2OCF)ncc1C(F)(F)F [Compound 6, (3,3-difluoropyrrolidin-1-yl)(4-(4-(ethylamino)-5-(trifluoromethyl)pyrimidin-2-ylamino)-5-(fluoromethoxy)-2-methoxyphenyl)methanone]
5 | 0.7 | CNc1nc(Nc2cc(C)c(C(=O)N3CCCC3)cc2OCF)ncc1C(F)(F)F [Compound 7, (5-(fluoromethoxy)-2-methyl-4-(4-(methylamino)-5-(trifluoromethyl)pyrimidin-2-ylamino)phenyl)(pyrrolidin-1-yl)methanone]
6 | 1.1 | CCNc1nc(Nc2cc(OC)c(C(=O)N3CCC(F)(F)C3)cc2OC)ncc1C(F)(F)F [Compound 8, (3,3-difluoropyrrolidin-1-yl)(4-(4-(ethylamino)-5-(trifluoromethyl)pyrimidin-2-ylamino)-2,5-dimethoxyphenyl)methanone]
7 | 1.5 | CNc1nc(Nc2cc(OC)c(C(=O)N3CCC(F)(F)C3)cc2OCCF)ncc1C(F)(F)F [Compound 9, (3,3-difluoropyrrolidin-1-yl)(5-(2-fluoroethoxy)-2-methoxy-4-((4-(methylamino)-5-(trifluoromethyl)pyrimidin-2-yl)amino)phenyl)methanone]
8 | 1.5 | CCNc1nc(Nc2cc(F)c(CN3CCOCC3)cc2OCCF)ncc1C(F)(F)F [Compound 10, N4-ethyl-N2-(5-fluoro-2-(2-fluoroethoxy)-4-(morpholinomethyl)phenyl)-5-(trifluoromethyl)pyrimidine-2,4-diamine]
9 | 1.6 | CNc1nc(Nc2cc(OC)c(C(=O)N3CCCCC3)cc2OCF)ncc1C(F)(F)F [Compound 11, (5-(fluoromethoxy)-2-methoxy-4-(4-(methylamino)-5-(trifluoromethyl)pyrimidin-2-ylamino)phenyl)(piperidin-1-yl)methanone]
10 | 2 | CCNc1nc(Nc2cc(F)c(C(=O)N3CCOCC3)cc2OCCF)ncc1C(F)(F)F [Compound 12, (4-(4-(ethylamino)-5-(trifluoromethyl)pyrimidin-2-ylamino)-2-fluoro-5-(2-fluoroethoxy)phenyl)(morpholino) methanone]
11 | 2.3 | CNc1nc(Nc2cc(C)c(C(=O)N3CCOCC3)cc2OCCF)ncc1C(F)(F)F [Compound 13, (5-(2-fluoroethoxy)-2-methyl-4-(4-(methylamino)-5-(trifluoromethyl)pyrimidin-2-ylamino)phenyl)(morpholino) methanone]
12 | 3.2 | CNc1nc(Nc2cc(OC)c(C(=O)N3CCCC3)cc2OCF)ncc1C(F)(F)F [Compound 14, (5-(fluoromethoxy)-2-methoxy-4-(4-(methylamino)-5-(trifluoromethyl)pyrimidin-2-ylamino)phenyl)(pyrrolidin-1-yl)methanone]
13 | 3.3 | CNc1nc(Nc2ccc(S(C)(=O)=O)cc2OCCF)ncc1C(F)(F)F [Compound 15, N2-(2-(2-fluoroethoxy)-4-(methylsulfonyl)phenyl)-N4-methyl-5-(trifluoromethyl)pyrimidine-2,4-diamine]
14 | 3.4 | CCNc1nc(Nc2cc(OCF)c(C(=O)N3CCCC3)cc2F)ncc1C(F)(F)F [Compound 16, (4-(4-(ethylamino)-5-(trifluoromethyl)pyrimidin-2-ylamino)-5-fluoro-2-(fluoromethoxy)phenyl)(pyrrolidin-1-yl)methanone]
15 | 3.5 | CNc1nc(Nc2cc(F)c(C(=O)N3CCOCC3)cc2OCCF)ncc1C(F)(F)F [Compound 17, (2-fluoro-5-(2-fluoroethoxy)-4-(4-(methylamino)-5-(trifluoromethyl)pyrimidin-2-ylamino)phenyl)(morpholino) methanone]
16 | 3.7 | CNc1nc(Nc2cc(F)c(CN3CCOCC3)cc2OCCF)ncc1C(F)(F)F [Compound 18, N2-(5-fluoro-2-(2-fluoroethoxy)-4-(morpholinomethyl)phenyl)-N4-methyl-5-(trifluoromethyl)pyrimidine-2,4-diamine]
17 | 4 | CNc1nc(Nc2cc(OC)c(C(=O)N(C)C)cc2OCF)ncc1C(F)(F)F [Compound 19, 5-(fluoromethoxy)-2-methoxy-N,N-dimethyl-4-(4-(methylamino)-5-(trifluoromethyl)pyrimidin-2-ylamino)benzamide]
18 | 4.7 | CNc1nc(Nc2cc(OC)c(C(=O)N3CCCC3)cc2OCCF)ncc1C(F)(F)F [Compound 20, (5-(2-fluoroethoxy)-2-methoxy-4-(4-(methylamino)-5-(trifluoromethyl)pyrimidin-2-ylamino)phenyl)(pyrrolidin-1-yl)methanone]

Row | Ki [nM] | Compound
19 | 6.6 | CNc1nc(Nc2ccc(CN3CCOCC3)cc2OCCF)ncc1C(F)(F)F [Compound 21, N2-(2-(2-fluoroethoxy)-4-(morpholinomethyl)phenyl)-N4-methyl-5-(trifluoromethyl)pyrimidine-2,4-diamine]
20 | 6.5 | CNc1nc(Nc2cc(F)c(C(=O)N3CCCC3)cc2OCF)ncc1C(F)(F)F [Compound 22, (2-fluoro-5-(fluoromethoxy)-4-(4-(methylamino)-5-(trifluoromethyl)pyrimidin-2-ylamino)phenyl)(pyrrolidin-1-yl)methanone]
21 | 11 | COc1nc(Nc2cc(C)c(C(=O)N3CCCC3)cc2OCF)ncc1Cl [Compound 24, (4-(5-chloro-4-methoxypyrimidin-2-ylamino)-5-(fluoromethoxy)-2-methylphenyl)(pyrrolidin-1-yl)methanone]
22 | 12 | COc1nc(Nc2ccc(CN3CCOCC3)cc2OCCF)ncc1Cl [Compound 25, 5-chloro-N-(2-(2-fluoroethoxy)-4-(morpholinomethyl)phenyl)-4-methoxypyrimidin-2-amine]
23 | 12 | COc1nc(Nc2ccc(S(C)(=O)=O)cc2OCCF)ncc1Cl [Compound 26, 5-chloro-N-(2-(2-fluoroethoxy)-4-(methylsulfonyl)phenyl)-4-methoxypyrimidin-2-amine]
24 | 12 | CNc1nc(Nc2ccc(S(C)(=O)=O)cc2OCCF)ncc1Cl [Compound 27, 5-chloro-N2-(2-(2-fluoroethoxy)-4-(methylsulfonyl)phenyl)-N4-methylpyrimidine-2,4-diamine]
25 | 15 | COc1nc(Nc2ccc(C(=O)N3CCOCC3)cc2OCCF)ncc1Cl [Compound 28, (4-(5-chloro-4-methoxypyrimidin-2-ylamino)-3-(2-fluoroethoxy)phenyl)(morpholino) methanone]
26 | 21 | CNc1nc(Nc2cnc(N3CCOCC3)cc2OCCF)ncc1C(F)(F)F [Compound 29, N2-(4-(2-fluoroethoxy)-6-morpholinopyridin-3-yl)-N4-methyl-5-(trifluoromethyl)pyrimidine-2,4-diamine]
27 | 2.3 | CNc1nc(Nc2ccc(C(=O)N3CCOCC3)cc2OCCF)ncc1C(F)(F)F [Compound 30, (3-(2-fluoroethoxy)-4-(4-(methylamino)-5-(trifluoromethyl)pyrimidin-2-ylamino)phenyl)(morpholino) methanone]
28 | 4.2 | CNc1nc(Nc2cnn(C3CCN(CCF)CC3)c2C)ncc1C(F)(F)F [Compound 31, N2-(1-(1-(2-fluoroethyl)piperidin-4-yl)-5-methyl-1H-pyrazol-4-yl)-N4-methyl-5-(trifluoromethyl)pyrimidine-2,4-diamine]
29 | 21 | COc1nc(Nc2cnn(C3CCN(CCF)CC3)c2C)ncc1Cl [Compound 32, 5-chloro-N-(1-(1-(2-fluoroethyl)piperidin-4-yl)-5-methyl-1H-pyrazol-4-yl)-4-methoxypyrimidin-2-amine]
30 | 25 | CNc1nc(Nc2cn(C3CCN(CCF)CC3)nc2C)ncc1C(F)(F)F [Compound 33, N2-(1-(1-(2-fluoroethyl)piperidin-4-yl)-3-methyl-1H-pyrazol-4-yl)-N4-methyl-5-(trifluoromethyl)pyrimidine-2,4-diamine]
31 | 24 | CNc1nc(Nc2cnn(C)c2CF)ncc1C(F)(F)F [Compound 34, N2-(5-(fluoromethyl)-1-methyl-1H-pyrazol-4-yl)-N4-methyl-5-(trifluoromethyl)pyrimidine-2,4-diamine]
32 | 1.1 | CNc1nc(Nc2cn(CCF)nc2C)ncc1C(F)(F)F [Compound 35, N2-(1-(2-fluoroethyl)-3-methyl-1H-pyrazol-4-yl)-N4-methyl-5-(trifluoromethyl)pyrimidine-2,4-diamine]
33 | 1.8 | CNc1nc(Nc2cnn(CCF)c2C)ncc1C(F)(F)F [Compound 36, N2-(1-(2-fluoroethyl)-5-methyl-1H-pyrazol-4-yl)-N4-methyl-5-(trifluoromethyl)pyrimidine-2,4-diamine]
34 | 2.7 | CNc1nc(Nc2ccc(C(=O)N3CCOCC3)cc2OC)ncc1C(F)(F)F [Compound 38, (3-methoxy-4-(4-(methylamino)-5-(trifluoromethyl)pyrimidin-2-ylamino)phenyl)(morpholino) methanone]
35 | 14 | COc1nc(Nc2ccc(C(=O)N3CCOCC3)cc2OCCF)ncc1Cl [Compound 40, (4-((5-chloro-4-methoxypyrimidin-2-yl)amino)-3-(2-fluoroethoxy)phenyl)(morpholino) methanone]
36 | 2 | [2H]C([2H])(F)C([2H])([2H])n1ncc(Nc2ncc(C(F)(F)F)c(NC)n2)c1C [Compound 48, N2-(1-(2-fluoro-1,1,2,2-tetradeutero-ethyl)-5-methyl-1H-pyrazol-4-yl)-N4-methyl-5-(trifluoromethyl)pyrimidine-2,4-diamine]
